How the values were obtained:
DENV-2 16681 strain = test: DENV-2 antiviral assay (eGFP-labeled virus in Vero cells); format: cell-based, Dengue virus; details: DENV-2 16681 eGFP, MOI 0.5, 3 days
How it was run: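 Vero cells were pre-plated with compound overnight, then infected with eGFP-labeled DENV-2 16681 at MOI 0.5 and incubated 3 days at 37 °C. eGFP fluorescence read by automated microscopy; 9-point 4-fold dilutions (25 μM–0.00038 μM final) in quadruplicate, EC50 by linear interpolation versus virus and cell controls.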

DENV-2 strain 16681 = test: Tetravalent RT-qPCR assay Protocol A, serotype 2; format: cell-based; details: Dengue virus, DENV2, 72 h; RT-qPCR serotype 2 16681, Vero cells, day 3
Method: (§1) The antiviral activity of the compounds of the invention was tested against DENV-1 strain TC974#666 (NCPV; Table 6), DENV-2 strain 16681 (Table 7), DENV-3 strain H87 (NCPV; Table 8) and DENV-4 strains H241 (NCPV; Table 9) in a RT-qPCR assay. Therefore, Vero cells were infected with either DENV-1, or -2, or -3, or -4 in the presence or absence of test compounds. At day 3 post-infection, the cells were lysed and cell lysates were used to prepare cDNA of both a viral target (the 3′UTR of DENV; table 2) and a cellular reference gene (β-actin, table 2). Subsequently, a duplex real time PCR was performed on a Lightcycler480 instrument. The generated Cp value is inversely proportional to the amount of RNA expression of these targets. Inhibition of DENV replication by a test compound result in a shift of Cp's for the 3′UTR gene. On the other hand, if a test compound is toxic to the cells, a similar effect on β-actin expression will be observed. The comparative ΔΔCp method is used to calculate EC50, which is based on the relative gene expression of the target gene (3′UTR) normalized with the cellular housekeeping gene (β-actin).
(§2) The culture medium consisted of minimal essential medium supplemented with 2% of heat-inactivated fetal calf serum, 0.04% gentamycin (50 mg/mL) and 2 mM of L-glutamine. Vero cells, obtained from ECACC, were suspended in culture medium and 75 μL/well was added in 96-well plates (10000 cells/well), which already contain the antiviral compounds. Typically, these plates contain a 4-fold serial dilution of 9 dilution steps of the test compound at 200 times the final concentration in 100% DMSO (500 nL; final concentration range: 25 μM-0.00038 μM). In addition, each plate contains wells which are assigned as virus controls (containing cells and virus in the absence of compound) and cell controls (containing cells in the absence of virus and compound). Once the cells were added in the plates, the plates were incubated in a fully humidified incubator (37° C., 5% CO2) until the next day. Then, DENV-1 strain TC974#666 at an MOI of 0.6, DENV-2 strain 16681 at an MOI of 0.01, DENV-3 strain H87 at an MOI of 1.0 and DENV-4 strains H241 at an MOI of 0.2 and SG/06K2270DK1/2005 at an MOI of 0.16, were added. Therefore, 25 μL of virus suspension was added to all the wells containing test compound and to the wells assigned as virus control. In parallel, 25 μL of culture medium was added to the cell controls. Next, the plates were incubated for 3 days in a fully humidified incubator (37° C., 5% CO2). After 3 days, the supernatant was removed from the wells and the cells were washed twice with ice-cold PBS (˜100 μL). The cell pellets within the 96-well plates were stored at −80° C. for at least 1 day. Next, RNA was extracted using the Cells-to-CT™ lysis kit, according to the manufacture's guideline (Applied Biosystems). The cell lysates can be stored at −80° C. or immediately used in the reverse transcription step.
(§3) In preparation of the reverse transcription step, mix A (table 3A) was prepared and 7.57 μL/well was dispensed in a 96-well plate. After addition of 5 μL of the cell lysates, a five minute denaturation step at 75° C. was performed (table 3B). Afterwards, 7.43 μL of mix B was added (table 3C) and the reverse transcription step was initiated (table 3D) to generate cDNA.
(§4) Finally, a RT-qPCR mix was prepared, mix C (table 4A), dispensed in 96-well LightCycler qPCR plates to which 3 μL of cDNA was added and the qPCR was performed according to the conditions in table 4B on a LightCycler 480. Using the LightCycler software and an in-house LIMS system, dose response curves for each compound were calculated and the half maximal effective concentration (EC50) and the half maximal cytotoxic concentration (CC50) were determined.

DENV-3 strain H87 = test: Tetravalent RT-qPCR assay Protocol A, serotype 3; format: cell-based; details: Dengue virus, DENV3, 72 h; RT-qPCR serotype 3 H87, Vero cells, day 3
Method: as §1, §2, §3, §4

in vitro [1] = format: cell-based; details: African green monkey, CC50
Method: as §1, §2, §4

DENV-4 strains H241 = test: Tetravalent RT-qPCR assay Protocol A, serotype 4; format: cell-based; details: Dengue virus, DENV4, 72 h; RT-qPCR serotype 4 H241, Vero cells, day 3
Method: as §1, §2, §3, §4

in vitro [2] = format: cell-based; details: African green monkey, CC50; remark: listed apart in the source
How it was run: (§5)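 On the same plates after eGFP read-out, resazurin was added and cells incubated a further 5 h at 37 °C, 5% CO2; resorufin fluorescence read with 530 nm excitation. CC50 is the concentration halving resazurin conversion versus cell control; SI = CC50/EC50.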

DENV-1 strain TC974#666 = test: Tetravalent RT-qPCR assay Protocol A, serotype 1; format: cell-based; details: Dengue virus, DENV1, 72 h; RT-qPCR serotype 1 TC974#666, Vero cells, day 3
Method: as §1, §2, §3, §4

Vero cells [3] = test: in vitro; format: cell-based; details: African green monkey
How it was run: as §5

Vero cells [4] = test: in vitro; format: cell-based; details: African green monkey, 3 days
Method: as §1, §2, §4

| Structure (SMILES) | EC50 (DENV-2 16681 strain; listed as 2A*) [nM] | EC50 (DENV-2 strain 16681) [nM] | EC50 (DENV-3 strain H87) [nM] | CC50 at 3 days (in vitro [1]) [nM] | EC50 (DENV-4 strains H241) [nM] | CC50 (in vitro [2]) [nM] | EC50 (DENV-1 strain TC974#666) [nM] | EC50 (DENV-2 16681 strain; listed as 9A*) [nM] | CC50 (Vero cells [3]) [nM] | EC50 (DENV-2 16681 strain; listed as 11A*) [nM] | EC50 (DENV-2 16681 strain; listed as 13B*) [nM] | CC50 (Vero cells [4]) [nM] | EC50 (DENV-2 16681 strain; listed as 14A*) [nM] | EC50 (DENV-2 16681 strain; listed as 15A*) [nM] | EC50 (DENV-2 16681 strain; listed as 16A*) [nM] | EC50 (DENV-2 16681 strain; listed as 17B*) [nM] | EC50 (DENV-2 16681 strain; listed as 18A*) [nM] |
| --- | --- | --- | --- | --- | --- | --- | --- | --- | --- | --- | --- | --- | --- | --- | --- | --- | --- |
| COc1cc(NC(C(=O)c2c[nH]c3c(C)c(F)ccc23)c2ccc(F)cc2OC)cc(S(C)(=O)=O)c1 (single isomer, unassigned) [Enantiomer 2A, 2-(4-fluoro-2-methoxyphenyl)-1-(6-fluoro-7-methyl-1H-indol-3-yl)-2-((3-methoxy-5-(methylsulfonyl)phenyl)amino)ethanone] | 0.77 | 0.856 | 58.4 | 2920 | 122 | 6100 | 5.85 |  |  |  |  |  |  |  |  |  |  |
| COc1cc(NC(C(=O)c2c[nH]c3cc(C)c(F)cc23)c2ccc(F)cc2OC)cc(S(C)(=O)=O)c1 (single isomer, unassigned) [Enantiomer 9A, 2-(4-fluoro-2-methoxyphenyl)-1-(5-fluoro-6-methyl-1H-indol-3-yl)-2-((3-methoxy-5-(methylsulfonyl)phenyl)amino)ethanone] |  | 1.14 | 104 | 4040 | 241 |  | 10 | 1.1 | 4800 |  |  |  |  |  |  |  |  |
| COc1cc(NC(C(=O)c2c[nH]c3cc(OC)c(F)cc23)c2ccc(F)cc2OC)cc(S(C)(=O)=O)c1 (single isomer, unassigned) [Enantiomer 11A, 2-(4-fluoro-2-methoxyphenyl)-1-(5-fluoro-6-methoxy-1H-indol-3-yl)-2-((3-methoxy-5-(methylsulfonyl)phenyl)amino)ethanone] |  | 1.09 | 93 | 4380 | 226 |  | 10.9 |  | 6600 | 1.1 |  |  |  |  |  |  |  |
| COc1cc(NC(C(=O)c2c[nH]c3c(F)c(F)ccc23)c2ccc(F)cc2OC)cc(S(C)(=O)=O)c1 (single isomer, unassigned) [Enantiomer 13B, 1-(6,7-difluoro-1H-indol-3-yl)-2-(4-fluoro-2-methoxyphenyl)-2-((3-methoxy-5-(methylsulfonyl)phenyl)amino)ethanone] |  | 0.675 |  | 3710 | 230 |  |  |  | 6700 |  | 1.1 | 2600 |  |  |  |  |  |
| COc1cc(NC(C(=O)c2c[nH]c3cc(F)c(C)cc23)c2ccc(F)cc2OC)cc(S(C)(=O)=O)c1 (single isomer, unassigned) [Enantiomer 14A, 2-(4-fluoro-2-methoxyphenyl)-1-(6-fluoro-5-methyl-1H-indol-3-yl)-2-((3-methoxy-5-(methylsulfonyl)phenyl)amino)ethanone] |  | 0.567 | 13.1 | 2420 | 69.4 |  | 1.4 |  | 3400 |  |  |  | 0.44 |  |  |  |  |
| COc1cc(NC(C(=O)c2c[nH]c3ccc(C)cc23)c2ccc(F)cc2OC)cc(S(C)(=O)=O)c1 (single isomer, unassigned) [Enantiomer 15A, 2-(4-fluoro-2-methoxyphenyl)-2-((3-methoxy-5-(methylsulfonyl)phenyl)amino)-1-(5-methyl-1H-indol-3-yl)ethanone] |  | 1.02 | 22.1 | > 2500 | 91 |  | 3.51 |  | 5400 |  |  |  |  | 0.8 |  |  |  |
| COc1cc(NC(C(=O)c2c[nH]c3cc(OC)c(Cl)cc23)c2ccc(F)cc2OC)cc(S(C)(=O)=O)c1 (single isomer, unassigned) [Enantiomer 16A, 1-(5-chloro-6-methoxy-1H-indol-3-yl)-2-(4-fluoro-2-methoxyphenyl)-2-((3-methoxy-5-(methylsulfonyl)phenyl)amino)ethanone] |  | 0.188 | 25.4 | 3170 | 80.1 |  | 3.26 |  | 3700 |  |  |  |  |  | 0.42 |  |  |
| COc1cc(NC(C(=O)c2c[nH]c3ccc(C(F)(F)F)cc23)c2ccc(F)cc2OC)cc(S(C)(=O)=O)c1 (single isomer, unassigned) [Enantiomer 17B, 2-(4-fluoro-2-methoxyphenyl)-2-((3-methoxy-5-(methylsulfonyl)phenyl)amino)-1-(5-(trifluoromethyl)-1H-indol-3-yl)ethanone] |  | 0.0921 | 7.28 | 1610 | 21.3 |  | 0.478 |  | 3600 |  |  |  |  |  |  | 0.2 |  |
| COc1cc(NC(C(=O)c2c[nH]c3ccc(OC(F)(F)F)cc23)c2ccc(F)cc2OC)cc(S(C)(=O)=O)c1 (single isomer, unassigned) [Enantiomer 18A, 2-(4-fluoro-2-methoxyphenyl)-2-((3-methoxy-5-(methylsulfonyl)phenyl)amino)-1-(5-(trifluoromethoxy)-1H-indol-3-yl)ethanone] |  | 0.14 | 7.54 | 3010 | 18.2 |  | 0.357 |  | 3100 |  |  |  |  |  |  |  | 0.086 |
